The values that follow come from US11938189B2, “Compositions and methods for stabilizing protein-containing formulations” (Genentech, Inc., priority 2010, dated 2024).

The test system of data set [1] is anti-MUC16 monoclonal antibody. The data set is described as follows: Stirring-induced aggregation (500 rpm), turbidity. The following applies: surfactant at one-tenth of its CMC; stirring 500 rpm, ambient temperature, 90 minutes; FIG. 2. The class given is physicochemical. Here is the method: In this set of studies, a Tefloncoated magnetic stir bar was used to induce agitation in a buffered solution (20 mM histidine-acetate, pH 5.5) of monoclonal antibody. 3 ml of the antibody solution was filled in a 6 cc glass vial and the solution was stirred at 500 rpm using a Teflon-coated stir bar. The solution was stirred for a period of 90 minutes and samples were withdrawn at regular intervals and analyzed for turbidity as an indication of formation of insoluble aggregates. Various surfactants of the class of alkylglycosides were evaluated for their effectiveness to prevent protein aggregation during shaking. The surfactants were used at concentrations below their respective critical micelle concentration (CMC) or above their respective CMC.
FIGS. 2 and 3 show the time-course of turbidity formation in a solution of the anti-MUC16 monoclonal antibody following stirring at 500 rpm using a Teflon-coated magnetic bar at ambient temperature for a period of 90 minutes. Turbidity was evaluated in solutions containing no surfactant as well as in solutions containing different alkylglycoside surfactants or polysorbate 20. […]

Data set [2] deals with anti-CD11a monoclonal antibody. The data set is described as follows: Shaking at 300 rpm, turbidity of antibody formulation. To be noted: 0.23 mM (0.02% w/v) polysorbate 20 or 3.6 mM (0.1% w/v) n-octyl-β-D-glucopyranoside; shaking 300 rpm, 72 hours, 37° C.; FIG. 8. The class given is physicochemical. As to the method: (§1) In this set of studies, a buffered solution (20 mM sodium phosphate buffer, pH 7.4) of monoclonal antibody was subjected to shaking on an orbital shaker at 150 rpm, at a controlled temperature of 37° C. These studies were carried out using a 3 ml solution fill of the antibody solution in a 6 cc glass vial. Samples were withdrawn at regular intervals and analyzed for percent monomer using size-exclusion chromatography. Various surfactants of the class of alkylglycosides were evaluated for their effectiveness to prevent protein aggregation during shaking. The surfactants were used at concentrations below their respective critical micelle concentration (CMC) or above their respective CMC.
(§2) In FIGS. 6-9, the effect of 0.23 mM (0.02% w/v) polysorbate 20 or 3.6 mM (0.1% w/v) n-octyl-β-D-glucopyranoside on the turbidity of aqueous formulations of an anti-MUC16 monoclonal antibody (FIG. 6), an anti-IgE monoclonal antibody (FIG. 7), an anti-CD11a monoclonal antibody (FIG. 8), and an anti-CD22 monoclonal antibody (FIG. 9), during shaking at 300 rpm for 72 hours at 37° C. was investigated.

In data set [3] the test system is anti-IgE monoclonal antibody. The description is as above. The class given is physicochemical. To be noted: 0.23 mM (0.02% w/v) polysorbate 20 or 3.6 mM (0.1% w/v) n-octyl-β-D-glucopyranoside; shaking 300 rpm, 72 hours, 37° C.; FIG. 7. As to the method: as §1, §2
Data set [4] deals with anti-CD22 monoclonal antibody. The data set is described as above. The class given is physicochemical. The following applies: 0.23 mM (0.02% w/v) polysorbate 20 or 3.6 mM (0.1% w/v) n-octyl-β-D-glucopyranoside; shaking 300 rpm, 72 hours, 37° C.; FIG. 9. Here is the method: as §1, §2
Data set [5] concerns anti-CD11a monoclonal antibody. The data set is described as follows: Oxidation of Met256 on storage in surfactant-containing antibody solution. The class given is physicochemical. The following applies: 0.1% w/v surfactant, pH 6.0, stored at 5° C. or 40° C. for 2 or 4 weeks; FIG. 15. Here is the method:
In a second experiment, oxidation of the Met256 amino acid residue in an anti-CD11a monoclonal antibody in solutions containing either n-decyl-β-D-glucopyranoside, n-octyl-β-D-glucopyranoside, or polysorbate 20 was evaluated. For this purpose, 3 ml of the buffered antibody solution (pH 6.0) containing 0.1% w/v of the surfactant was stored in 6 cc vials at either 5° C. or 40° C. for a period of either 2 or 4 weeks.

For data set [6], the system named is anti-MUC16 monoclonal antibody. The data set is described as follows: Shaking at 300 rpm, percent monomer of antibody. The class given is physicochemical. The following applies: shaking 300 rpm, 72 hours, 37° C. As to the method:
as §1
In FIG. 5, the effect of varying the concentration of n-octyl-β-D-glucopyranoside on the percent monomer of the anti-MUC16 monoclonal antibody in solution, following shaking at 300 rpm at 37° C. for 72 hours was investigated.
(§3) In FIGS. 10-13, the effect of 0.23 mM (0.02% w/v) polysorbate 20 or 3.6 mM (0.1% w/v) n-octyl-β-D-glucopyranoside on the percent monomer of aqueous formulations of an anti-MUC16 monoclonal antibody (FIG. 10), an anti-IgE monoclonal antibody (FIG. 11), an anti-CD11a monoclonal antibody (FIG. 12), and an anti-CD22 monoclonal antibody (FIG. 13), during shaking at 300 rpm for 72 hours at 37° C. was investigated.

For data set [7], the system named is anti-MUC16 monoclonal antibody. The data set is described as follows: Shaking-induced aggregation (150 rpm), percent monomer by size-exclusion chromatography. The class given is physicochemical. To be noted: surfactant at one half of its CMC; shaking 150 rpm, 37° C., 64 hours; FIG. 1. Here is the method: as §1
The surfactants were employed at one half the concentration of their respective CMC values, i.e., 1.1 mM (0.035% w/v) n-decyl-β-D-glucopyranoside, 9 mM (0.24%) n-octyl-β-D-glucopyranoside and 0.04 mM (0.0035%) polysorbate 20.

Data set [8] relates to anti-MUC16 monoclonal antibody. The experiment in a line: Shaking at 300 rpm, turbidity of antibody formulation. The class given is physicochemical. To be noted: shaking 300 rpm, 72 hours, 37° C. As to the method:
as §1
In FIG. 4, the effect of varying the concentration of n-octyl-β-D-glucopyranoside on the turbidity of anti-MUC16 monoclonal antibody formulations during shaking at 300 rpm for 72 hours at 37° C. was investigated.
as §2

For data set [9] the following is noted: in water at 20-25° C.; cited from earlier work.
Data set [10] relates to anti-CD11a monoclonal antibody. The experiment in a line: Shaking at 300 rpm, percent monomer of antibody. The class given is physicochemical. The following applies: 3.6 mM (0.1% w/v); shaking 300 rpm, 72 hours, 37° C.; FIG. 12. Here is the method: as §1, §3
For data set [11], the system named is anti-IgE monoclonal antibody. The data set is described as follows: Shaking at 300 rpm, percent monomer of antibody. The class given is physicochemical. The following applies: 3.6 mM (0.1% w/v); shaking 300 rpm, 72 hours, 37° C.; FIG. 11. As to the method:
as §1, §3

For data set [12], the system named is anti-CD22 monoclonal antibody. The data set is described as follows: Shaking at 300 rpm, percent monomer of antibody. The following applies: 3.6 mM (0.1% w/v); shaking 300 rpm, 72 hours, 37° C.; FIG. 13. The class given is physicochemical. As to the method:
as §1, §3

Data set [13] deals with anti-CD22 monoclonal antibody. The experiment in a line: Fenton reagent-induced oxidation of Met and Trp residues (phenyl RP-HPLC). The class given is physicochemical. To be noted: 3.6 mM (0.1% w/v); 0.1 ppm Fe3+ and 1 ppm hydrogen peroxide, 2 or 4 weeks at 40° C., pH 5.5; compared with 0.23 mM polysorbate 20 and no surfactant; FIG. 16. As to the method: In a third experiment, Fenton reagent-induced oxidation of Met and Trp amino acid residues (i.e., amino acids known to be susceptible to oxidation) in an anti-CD22 monoclonal antibody was analyzed. Specifically, buffered (20 mM histidine acetate, pH 5.5) solutions of anti-CD22 monoclonal antibody containing 0.1 ppm Fe^3+ and 1 ppm hydrogen peroxide were prepared and stored for either 2 or 4 weeks at 40° C., either in the absence of surfactant or in the presence of 0.23 mM (0.02% w/v) polysorbate 20 or 3.6 mM (0.1% w/v) n-octyl-β-D-glucopyranoside. samples were then withdrawn and percent oxidation of Met and Trp residues was determined from the percent early peaks of the antibody eluting through a phenyl RP-HPLC column.

Turning to `CCCCCCCCO[C@@H]1O[C@H](CO)[C@@H](O)[C@H](O)[C@H]1O` [n-octyl-β-D-glucopyranoside], in [1], the “prevention of turbidity development on stirring” value was “effective in preventing turbidity development”. Further, the “inhibition of visible antibody aggregates measured by turbidity formation” value is on record as “effectively inhibited the formation of visible antibody aggregates” in data set [2]; “effectively inhibited the formation of visible antibody aggregates” in data set [3]; “effectively inhibited the formation of visible antibody aggregates” in data set [4]; “effectively inhibited the formation of visible antibody aggregates” in data set [8] (0.23 mM (0.02% w/v) polysorbate 20 or 3.6 mM (0.1% w/v) n-octyl-β-D-glucopyranoside, FIG. 6); “effectively inhibited the formation of visible antibody aggregates” in data set [8] (0.72, 1.8, 3.6, 9 and 18 mM n-octyl-β-D-glucopyranoside, FIG. 4). The “increase in percent oxidized Met256 vs initial sample” value in data set [5] was “no significant increase”. In addition, the “maintenance of percent monomer upon shaking vs unshaken sample” value in [6] (3.6 mM (0.1% w/v), FIG. 10) is “effectively maintained the percent monomer”; in data set [6] (all concentrations tested (0.72-18 mM), FIG. 5), “effectively maintained the percent monomer”; in data set [10], “effectively maintained the percent monomer”; in [11], “effectively maintained the percent monomer”; in data set [12], “effectively maintained the percent monomer”. Besides, the “prevention of shaking-induced loss of percent monomer” value in [7] is recorded as “effective in preventing loss of monomer”. Besides, the “CMC Value” in data set [9] was 18 mM. The “CMC Value (w/v)” value in data set [9] was 0.53% w/v. The “Fenton reagent-induced oxidation of susceptible amino acids (Trp, Met)” value in data set [13] was “inhibited”.
